Earlier results in article PMC3328449, “Inhibition of Diacylglycerol–Sensitive TRPC Channels by Synthetic and Natural Steroids” (PLoS ONE, 2012).
pIC50: −log10 of the molar value.

Columns and labels:
TRPC3 = test system: TRPC3; parameters: method as in PMID 19289841; conditions: read-out: half maximal inhibitory concentration (IC50), TRPC3; cited from earlier work
other TRPC channels = test system: other TRPC channels; parameters: method as in PMID 19289841; conditions: cited from earlier work

CCOC(=O)c1cnn(-c2ccc(NC(=O)C(Cl)=C(Cl)Cl)cc2)c1C(F)(F)F [Pyr3]
pIC50 (TRPC3): 6.15 | Effects on other TRPC channels (other TRPC channels): without having effects
